Measured values reported in publication PMC4385514 (Chemical biology & drug design, 2014).
Structures can show the parent of a compound that is named as a salt.

What was measured:
TbrPDEB1 = target: T1, TbrPDEB1 (Trypanosoma brucei, UniProt Q8WQX9); assay: TbrPDEB1 biochemical assay; conditions: for inhibition at 10 µM: read-out: TbrPDEB1 (% inh); for fold improvement of TbrPDEB1 activity over 3: relative to compound 3
T1 sequence (Q8WQX9 1-930): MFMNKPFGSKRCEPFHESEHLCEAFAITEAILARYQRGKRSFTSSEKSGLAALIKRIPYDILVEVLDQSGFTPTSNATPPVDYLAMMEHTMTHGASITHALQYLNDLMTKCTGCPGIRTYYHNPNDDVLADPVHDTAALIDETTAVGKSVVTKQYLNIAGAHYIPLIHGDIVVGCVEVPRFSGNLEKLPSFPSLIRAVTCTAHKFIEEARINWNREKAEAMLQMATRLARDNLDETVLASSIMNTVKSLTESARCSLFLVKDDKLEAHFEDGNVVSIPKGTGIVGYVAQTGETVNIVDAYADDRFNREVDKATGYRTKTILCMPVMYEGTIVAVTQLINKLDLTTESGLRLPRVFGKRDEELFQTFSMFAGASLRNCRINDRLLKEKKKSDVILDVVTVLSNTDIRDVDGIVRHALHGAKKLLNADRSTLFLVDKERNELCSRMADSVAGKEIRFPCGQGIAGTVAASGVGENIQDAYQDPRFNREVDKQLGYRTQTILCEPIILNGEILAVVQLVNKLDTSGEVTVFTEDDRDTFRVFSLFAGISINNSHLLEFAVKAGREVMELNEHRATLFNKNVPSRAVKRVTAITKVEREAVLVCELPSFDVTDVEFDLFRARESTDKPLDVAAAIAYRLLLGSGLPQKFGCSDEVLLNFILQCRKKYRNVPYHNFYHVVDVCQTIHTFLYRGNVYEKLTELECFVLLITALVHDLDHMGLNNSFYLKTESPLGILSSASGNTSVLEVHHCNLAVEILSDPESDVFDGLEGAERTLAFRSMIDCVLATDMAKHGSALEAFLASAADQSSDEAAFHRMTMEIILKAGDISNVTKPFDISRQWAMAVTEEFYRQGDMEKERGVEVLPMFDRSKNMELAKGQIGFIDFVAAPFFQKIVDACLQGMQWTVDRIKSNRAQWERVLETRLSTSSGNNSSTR

[1] = tested on: Bloodstream forms of Trypanosoma brucei brucei strain 427; assay: Trypanosome cell culture assay; assay type: cell-based; conditions: 48 h, read-out: T brucei cell (EC50, μM)

Row | Structure (SMILES) | inhibition at 10 µM (TbrPDEB1) [%] | EC50 [1] [µM] | fold improvement of TbrPDEB1 activity over 3 (TbrPDEB1)
1 | COc1cccc(Nc2c(C(N)=O)cnc3c(C)cc(S(=O)(=O)c4cccc(C(=O)N(C)C)c4)cc23)c1 [Compound 3, GSK-256066, reference compound] | 51 ± 3.9 | 7.8 ± 2.5 | –
2 | COC(=O)c1cccc(Sc2cc(C)c3ncc(C(N)=O)c(Nc4cccc(OC)c4)c3c2)c1 [Compound 9a, methyl 3-(3-carbamoyl-4-(3-methoxyphenylamino)-8-methylquinolin-6-ylthio)benzoate] | 12 ± 6.1 | – | –
3 | COc1cccc(Nc2c(C(N)=O)cnc3c(C)cc(Sc4ccccc4)cc23)c1 [Compound 9b, 4-((3-methoxyphenyl)amino)-8-methyl-6-(phenylthio)quinoline-3-carboxamide] | 10 | – | –
4 | COC(=O)c1cccc(S(=O)(=O)c2cc(C)c3ncc(C(N)=O)c(Nc4cccc(OC)c4)c3c2)c1 [Compound 10a, methyl 3-(3-carbamoyl-4-(3-methoxyphenylamino)-8-methylquinolin-6-ylsulfonyl)benzoate] | 70 ± 7.9 | 7.3 ± 0.97 | approximately 8 fold
5 | COc1cccc(Nc2c(C(N)=O)cnc3c(C)cc(S(=O)(=O)c4ccccc4)cc23)c1 [Compound 10b, 4-((3-methoxyphenyl)amino)-8-methyl-6-(phenylsulfonyl)quinoline-3-carboxamide] | 21 ± 16 | – | –
6 | COc1cccc(Nc2c(C(N)=O)cnc3c(C)cc(S(=O)(=O)c4cccc(C(=O)O)c4)cc23)c1 [Compound 11, 3-(3-carbamoyl-4-(3-methoxyphenylamino)-8-methylquinolin-6-ylsulfonyl)benzoic acid] | 82 ± 10 | – | approximately 8 fold
7 | COc1cccc(Nc2c(C(N)=O)cnc3c(C)cc(S(=O)(=O)c4cccc(C(N)=O)c4)cc23)c1 [Compound 12a, 6-(3-carbamoylphenylsulfonyl)-4-(3-methoxyphenylamino)-8-methylquinoline-3-carboxamide] | 64 ± 7 | – | –
8 | CNC(=O)c1cccc(S(=O)(=O)c2cc(C)c3ncc(C(N)=O)c(Nc4cccc(OC)c4)c3c2)c1 [Compound 12b, 4-(3-methoxyphenylamino)-8-methyl-6-(3-(methylcarbamoyl)phenylsulfonyl)quinoline-3-carboxamide] | 66 ± 6.1 | – | –
9 | COC(=O)c1cccc(Nc2cc(C)c3ncc(C(N)=O)c(Nc4cccc(OC)c4)c3c2)c1 [Compound 13, methyl 3-(3-carbamoyl-4-(3-methoxyphenylamino)-8-methylquinolin-6-ylamino)benzoate] | 84 ± 7.7 | – | –
10 | COc1cccc(Nc2c(C(N)=O)cnc3c(C)cc(-c4cc(C(=O)O)cc(C(=O)O)c4)cc23)c1 [Compound 18a, 5-(3-carbamoyl-4-((3-methoxyphenyl)amino)-8-methylquinolin-6-yl)isophthalic acid] | 10 ± 5.3 | – | –
11 | COC(=O)c1cc(C(=O)O)cc(-c2cc(C)c3ncc(C(N)=O)c(Nc4cccc(OC)c4)c3c2)c1 [Compound 18b, 3-(3-carbamoyl-4-((3-methoxyphenyl)amino)-8-methylquinolin-6-yl)-5-(methoxycarbonyl)benzoic acid] | 31 ± 14 | – | –
12 | COC(=O)c1cccc(-c2cc(C)c3ncc(C(N)=O)c(-c4cccc(C(=O)OC)c4)c3c2)c1 [Compound 21a, dimethyl 3,3′-(3-carbamoyl-8-methylquinoline-4,6-diyl)dibenzoate] | 41 ± 5.8 | – | –
13 | COC(=O)c1cccc(-c2cc(C)c3ncc(C(N)=O)cc3c2)c1 [Compound 21b, methyl 3-(3-carbamoyl-8-methylquinolin-6-yl)benzoate] | 0 | – | –
14 | CNC(=O)c1cnc2c(C)cc(-c3ccc4cnn(C)c4c3)cc2c1Nc1cccc(OC)c1 [Compound 27a, 4-((3-methoxyphenyl)amino)-N,8-dimethyl-6-(1-methyl-1H-indazol-6-yl)quinoline-3-carboxamide] | 34 ± 11 | – | –
15 | COc1cccc(Nc2c(C(=O)N(C)C)cnc3c(C)cc(-c4ccc5cnn(C)c5c4)cc23)c1 [Compound 27b, 4-((3-methoxyphenyl)amino)-N,N,8-trimethyl-6-(1-methyl-1H-indazol-6-yl)quinoline-3-carboxamide, formic acid salt] | 22 ± 3.8 | – | –
16 | Cc1cc(-c2cccc(-c3ncco3)c2)cc2c(NC3CCCC3)c(C(N)=O)cnc12 [Compound 28, 4-(cyclopentylamino)-8-methyl-6-(3-(oxazol-2-yl)phenyl)quinoline-3-carboxamide] | 76 ± 2.2 | – | –
